These results are taken from US20240116922A1, “IMIDAZO[1,2-A]PYRIDINE DERIVATIVES AS IRAK4 INHIBITORS AND THEIR USE IN THE TREATMENT OF DISEASE” (BIOGEN MA INC., priority 2020, published 2024).

Converted amounts (≈) assume the structure as drawn. Counter-ions that a name gives are not always drawn.

Data set [1] can be described thus: Kinetic solubility assay (CLND), pH 6.8. In kind it is physicochemical. To be noted: aqueous buffer, kinetic from dmso stock; potassium phosphate buffer pH 6.8, 2% DMSO, 24 hours at ambient temperature.
In a further data set the target is IRAK4 (Homo sapiens (Human), UniProt Q9NWZ3). In words: IRAK4 MSD biochemical assay (2-hour 1 mM ATP). To be noted: 0.1 nM IRAK4, 1 mM ATP, 2 hour at room temperature.
IRAK4, sequence (Q9NWZ3 whole entry, the tested form may be a part): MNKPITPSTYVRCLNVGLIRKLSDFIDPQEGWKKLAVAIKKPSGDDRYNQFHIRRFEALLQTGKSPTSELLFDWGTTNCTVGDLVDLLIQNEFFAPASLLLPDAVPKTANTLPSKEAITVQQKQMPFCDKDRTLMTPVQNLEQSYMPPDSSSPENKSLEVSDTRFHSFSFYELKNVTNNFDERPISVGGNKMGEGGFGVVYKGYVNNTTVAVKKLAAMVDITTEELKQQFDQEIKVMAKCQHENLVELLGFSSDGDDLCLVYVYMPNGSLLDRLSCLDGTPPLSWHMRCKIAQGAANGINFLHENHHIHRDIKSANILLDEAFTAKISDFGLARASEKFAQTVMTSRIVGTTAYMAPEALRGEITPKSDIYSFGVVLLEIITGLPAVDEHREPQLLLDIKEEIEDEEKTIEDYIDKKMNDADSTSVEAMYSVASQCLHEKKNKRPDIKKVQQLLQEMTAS
The nature of data set [2]: Kpuu assay (in vivo brain-to-plasma unbound partition). To be noted: brain (unbound) versus plasma (unbound); intravenous infusion 4 to 24 h; unbound brain/plasma ratio; read-out: Brain Kpu, u.
Description: For the brain-to-plasma partition coefficient (Kp) evaluation, a dosing solution was intravenously infused into animals at a constant flow rate for 4 to 24 h. Blood samples were serially collected during infusion, and CSF and brain samples were harvested at the end of infusion.
Tissue samples were typically homogenized in phosphate buffer saline (PBS) using a bead ruptor.
CSF samples were typically diluted with 8% BSA in PBS to prevent from non-specific binding. Artificial CSF (aCSF) is used as the surrogate matrix.
Calibration curves were prepared by spiking the analyte(s) into blank matrices, which were processed together with plasma, tissue homogenate and/or CSF samples by protein precipitation using a proper organic solvent (e.g. acetonitrile and methanol) containing generic analogue internal standards (e.g. verapamil, chrysin and glyburide). Matrix matching was used when analyzing multiple matrices in the same run. Samples above the upper limit of quantitation (ULOQ) needed to be diluted into the calibration range using either a pre-extraction or post-extraction dilution approach.
Processed samples were analyzed by LC-MS/MS using a proper method performing within the acceptable sensitivity, selectivity, precision and accuracy. For an analytical run to be accepted, over 75% of the calibration standards in the dual calibration curves needed to be within 20% of the nominal concentrations.
Brain concentrations were compared against plasma concentrations at the corresponding timepoint for the calculation of partition coefficient (Kp).
Unbound drug partition coefficient (Kpuu), defined as the ratio of unbound drug partition across the blood-brain barrier, was calculated using the equation below:
[formula] • Cb: measured total drug concentration in brain • Fub: unbound drug fraction in brain • Cp: measured total drug concentration in plasma • Fup: unbound drug fraction in plasma
The unbound fraction of the test compound was determined based on the protocols described below.
% Free=(PAR of buffer side/PAR of plasma side)*100 • PAR—Peak area ratio (PAR) • Fu % Free. 100 • Fu=fraction unbound
A further data set has as its target MDR1 (Homo sapiens (Human), UniProt P08183). The data set can be described thus: in vitro. To be noted: MDCK-MDR1.

MDR1, sequence (P08183 whole entry): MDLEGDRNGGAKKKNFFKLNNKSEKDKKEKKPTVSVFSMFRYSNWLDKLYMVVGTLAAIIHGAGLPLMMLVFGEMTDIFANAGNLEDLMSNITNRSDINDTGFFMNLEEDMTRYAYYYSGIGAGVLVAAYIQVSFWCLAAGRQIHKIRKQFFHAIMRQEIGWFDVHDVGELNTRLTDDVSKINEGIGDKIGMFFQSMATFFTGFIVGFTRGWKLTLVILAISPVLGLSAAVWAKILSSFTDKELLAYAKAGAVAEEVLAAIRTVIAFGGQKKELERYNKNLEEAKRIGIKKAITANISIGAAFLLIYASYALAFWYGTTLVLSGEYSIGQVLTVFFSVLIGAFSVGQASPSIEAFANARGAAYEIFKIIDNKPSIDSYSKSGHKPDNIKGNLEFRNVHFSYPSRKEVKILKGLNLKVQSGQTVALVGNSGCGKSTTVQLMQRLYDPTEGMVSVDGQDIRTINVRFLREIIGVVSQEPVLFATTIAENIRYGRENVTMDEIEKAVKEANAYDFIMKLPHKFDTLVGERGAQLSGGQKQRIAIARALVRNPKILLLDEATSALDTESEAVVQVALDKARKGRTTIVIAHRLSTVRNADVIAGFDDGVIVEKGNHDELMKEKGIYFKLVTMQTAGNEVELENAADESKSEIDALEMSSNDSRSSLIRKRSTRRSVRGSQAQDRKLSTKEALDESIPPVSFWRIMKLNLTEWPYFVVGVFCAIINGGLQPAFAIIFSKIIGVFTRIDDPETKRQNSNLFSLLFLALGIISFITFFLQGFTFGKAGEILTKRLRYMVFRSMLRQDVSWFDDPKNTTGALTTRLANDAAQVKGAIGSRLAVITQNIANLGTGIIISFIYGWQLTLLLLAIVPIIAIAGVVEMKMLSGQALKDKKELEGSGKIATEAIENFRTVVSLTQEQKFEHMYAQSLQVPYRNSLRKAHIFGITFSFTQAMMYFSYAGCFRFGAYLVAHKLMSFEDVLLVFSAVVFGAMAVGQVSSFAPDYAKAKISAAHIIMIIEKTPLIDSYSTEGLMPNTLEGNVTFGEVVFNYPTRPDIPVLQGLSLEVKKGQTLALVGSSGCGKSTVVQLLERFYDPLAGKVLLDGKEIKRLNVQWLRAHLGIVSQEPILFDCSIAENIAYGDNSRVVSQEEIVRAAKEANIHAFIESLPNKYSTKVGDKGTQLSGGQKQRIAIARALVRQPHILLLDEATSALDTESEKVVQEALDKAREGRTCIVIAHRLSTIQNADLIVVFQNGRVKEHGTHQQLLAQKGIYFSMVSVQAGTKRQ
Description for IRAK4: The 2-hour 1 mM ATP Biochemical Assay employed a MesoScale Detection (MSD) format.
The activity was quenched with 11 μl of 70 mM EDTA, pH 8.
To detect the phosphorylated biotinylated peptide substrate, 30 μl of the quenched reaction mixture was added to equivalent wells of a 384 well streptavidin coated MesoScale plate (Meso Scale Discovery #L21SA-1). After a 1 hour incubation of the plate for 1 hour at room temperature with gentle mixing, the plate wells were washed 3 times with 50 mM Tris, pH 7.5, 150 mM NaCl, 0.02% Tween-20.
A 25 μl volume of 1:500 anti-P-Threonine Rabbit polyclonal Antibody plus 1:500 Goat-anti-Rabbit Sulfo Tag Antibody (Meso Scale Discovery R32AB-1) in 50 mM Tris, pH 7.5, 150 mM NaCl, 0.02% Tween-20 plus 2% BSA was then added to each well. After a 1-hour incubation of the plate for 1 hour at room temperature with gentle mixing, the plate wells were washed, 3 times with 50 mM Tris, pH 7.5, 150 mM NaCl, 0.02% Tween-20.

In general, solubility (kinetic) refers to the concentration staying in solution when a stock, usually in DMSO, is diluted into the medium. In general, IC50 refers to the concentration needed to halve the response being measured. A low value points to greater potency. By efflux ratio is commonly meant a quotient of directional permeabilities that is used to spot active efflux. As for `CC(C)Oc1c(C(=O)Nc2cccn(C3CC3)c2=O)cn2cc(C34COC(C)(C3)C4)nc2c1F` [Example 61, N-(1-cyclopropyl-2-oxo-1,2-dihydropyridin-3-yl)-8-fluoro-7-isopropoxy-2-(1-methyl-2-oxabicyclo[2.1.1]hexan-4-yl)imidazo[1,2-a]pyridine-6-carboxamide], the solubility (kinetic) at 24 h in data set [1] was 65.8 µg/mL (≈ 141 µM). The molecule also yielded an IC50 on IRAK4 of 2 nM. Moreover, the Kpuu (unbound brain-to-plasma partition coefficient) in data set [2] stood at 0.45. For the same molecule, on MDR1, the efflux ratio at 120 min, 1 μM was 2.8.
The like results for `CC(C)Oc1c(C(=O)Nc2cccn(C3CC3)c2=O)cn2cc([C@@]34CC[C@@](C)(C3)OC4)nc2c1F` (single isomer, unassigned) [Example 67] were, in that order, 48.8 µg/mL (≈ 102 µM), 1.3 nM, 0.96 and 2.8.
The like results for `CC[C@H](C)Oc1cc2nc(C34COC(C)(C3)C4)cn2cc1C(=O)Nc1cccn(C2CC2)c1=O` [Example 19, (S)-7-(sec-butoxy)-N-(1-cyclopropyl-2-oxo-1,2-dihydropyridin-3-yl)-2-(1-methyl-2-oxabicyclo[2.1.1]hexan-4-yl)imidazo[1,2-a]pyridine-6-carboxamide] were, in that order, 47 µg/mL (≈ 102 µM), 0.5 nM, 0.49 and 6.
As for `Cc1cnc2c(NC(=O)c3cn4cc(C56COC(C)(C5)C6)nc4cc3OC(C)C)cnn2c1` [Comparator 1B, 7-isopropoxy-2-(1-methyl-2-oxabicyclo[2.1.1]hexan-4-yl)-N-(6-methylpyrazolo[1,5-a]pyrimidin-3-yl)imidazo[1,2-a]pyridine-6-carboxamide, reference compound], the solubility (kinetic) at 24 h in data set [1] came out at 0.3 µg/mL (≈ 0.672 µM). Also, half-maximal inhibition at IRAK4 (IC50) was put at 0.2 nM. The Kpuu (unbound brain-to-plasma partition coefficient) in data set [2] worked out at 0.3. Besides, the efflux ratio at 120 min, 1 μM at MDR1 amounted to 4.3.
The like results for `CC(C)Oc1nc2nc(C34CCC(C)(C3)OC4)cn2cc1C(=O)Nc1cccn([C@H]2C[C@H]2C)c1=O` (stereo in doubt) [Example 187, 7-isopropoxy-2-((1R,4S)-1-methyl-2-oxabicyclo[2.2.1]heptan-4-yl)-N-(1-((1S,2R)-2-methylcyclopropyl)-2-oxo-1,2-dihydropyridin-3-yl)imidazo[1,2-a]pyrimidine-6-carboxamide trifluoroacetate] were, in that order, 55.1 µg/mL, 0.2 nM, 0.19 and 10.9.
Molecule `CC(C)Oc1cc2nc(C34COC(CF)(C3)C4)cn2cc1C(=O)Nc1cccn(C2CC2)c1=O` [Example 9, N-(1-cyclopropyl-2-oxo-1,2-dihydropyridin-3-yl)-2-(1-(fluoromethyl)-2-oxabicyclo[2.1.1]hexan-4-yl)-7-isopropoxyimidazo[1,2-a]pyridine-6-carboxamide] returned a solubility (kinetic) at 24 h in data set [1] of 70.6 µg/mL (≈ 151 µM). Moreover, on IRAK4, the midpoint of inhibition, the IC50, lay at 0.4 nM. Further, the Kpuu (unbound brain-to-plasma partition coefficient) in data set [2] is 0.18. The efflux ratio at 120 min, 1 μM at MDR1 was determined as 9.7.
In the case of `Cc1cnc2c(NC(=O)c3cn4cc(C56CCC(C)(CC5)OC6)nc4nc3OC(C)C)cnn2c1` [Comparator 6B, 7-isopropoxy-2-(1-methyl-2-oxabicyclo[2.2.2]octan-4-yl)-N-(6-methylpyrazolo[1,5-a]pyrimidin-3-yl)imidazo[1,2-a]pyrimidine-6-carboxamide, reference compound], the solubility (kinetic) at 24 h in data set [1] worked out at 7.2 µg/mL (≈ 15.1 µM). In addition, at IRAK4, the IC50 came to 0.2 nM. Moreover, the Kpuu (unbound brain-to-plasma partition coefficient) in data set [2] came to 0. The efflux ratio at 120 min, 1 μM on MDR1 stood at 1.5.
In the same order, the values of `CC(C)Oc1nc2nc([C@@]34CC[C@@](C)(C3)OC4)cn2cc1C(=O)Nc1cccn([C@H]2C[C@@H]2C)c1=O` (single isomer, unassigned) [Example 149] are 34.5 µg/mL (≈ 72.2 µM), 0.4 nM, 1.34 and 2.8.
With `CC(C)Oc1nc2nc(C34COC(C)(C3)C4)cn2cc1C(=O)Nc1cccn(C2CC2(F)F)c1=O` (centres unmarked) [Example 84, N-(1-(2,2-difluorocyclopropyl)-2-oxo-1,2-dihydropyridin-3-yl)-7-isopropoxy-2-(1-methyl-2-oxabicyclo[2.1.1]hexan-4-yl)imidazo[1,2-a]pyrimidine-6-carboxamide], the kinetic solubility at 24 h in data set [1] stood at 37.7 µg/mL (≈ 77.7 µM). The molecule further gave an IC50 on IRAK4 of 0.6 nM. For the same molecule, the Kpuu (unbound brain-to-plasma partition coefficient) in data set [2] was 0.67. Moreover, the efflux ratio at 120 min, 1 μM at MDR1 turned out to be 7.4.
In the same order, the values of `CC12CC(c3cn4cc(C(=O)Nc5cccn(C6CC6)c5=O)c(OC5CCC5)cc4n3)(CO1)C2` [Example 27, 7-cyclobutoxy-N-(1-cyclopropyl-2-oxo-1,2-dihydropyridin-3-yl)-2-(1-methyl-2-oxabicyclo[2.1.1]hexan-4-yl)imidazo[1,2-a]pyridine-6-carboxamide] are 65.7 µg/mL (≈ 143 µM), 0.6 nM, 0.42 and 4.
In data set [1], `CC[C@H](C)Oc1cc2nc(C34COC(CF)(C3)C4)cn2cc1C(=O)Nc1cccn(C2CC2)c1=O` (single isomer, unassigned) [Example 15] gave a solubility (kinetic) at 24 h of 78.6 µg/mL (≈ 164 µM). Also, inhibition at IRAK4 was half-maximal at 0.4 nM (IC50). For the same molecule, the Kpuu (unbound brain-to-plasma partition coefficient) in data set [2] was determined as 0.41. Further, on MDR1, the efflux ratio at 120 min, 1 μM was found to be 8.1.
The like results for `CC(C)Oc1cc2nc([C@]34CC[C@](C)(C3)OC4)cn2cc1C(=O)Nc1cccn([C@H]2C[C@H]2C)c1=O` [Example 180, 7-isopropoxy-2-((1R,4S)-1-methyl-2-oxabicyclo[2.2.1]heptan-4-yl)-N-(1-((1S,2R)-2-methylcyclopropyl)-2-oxo-1,2-dihydropyridin-3-yl)imidazo[1,2-a]pyridine-6-carboxamide trifluoroacetate] were, in that order, 23 µg/mL, 0.2 nM, 1.58 and 2.6.
`CC[C@H](C)Oc1nc2nc([C@@]34CC[C@@](C)(C3)OC4)cn2cc1C(=O)Nc1cccn(C2CC2)c1=O` [Example 49, 7-((S)-sec-butoxy)-N-(1-cyclopropyl-2-oxo-1,2-dihydropyridin-3-yl)-2-((1S,4R)-1-methyl-2-oxabicyclo[2.2.1]heptan-4-yl)imidazo[1,2-a]pyrimidine-6-carboxamide] gave a solubility (kinetic) at 24 h in data set [1] of 56.1 µg/mL (≈ 117 µM). This molecule also gave an IC50 on IRAK4 of 0.4 nM. Further, the Kpuu (unbound brain-to-plasma partition coefficient) in data set [2] turned out to be 0.66. Further, the efflux ratio at 120 min, 1 μM on MDR1 amounted to 3.6.
In the case of `CC(C)Oc1cc2nc(C34CC(C#N)(C3)C4)cn2cc1C(=O)Nc1cccn(C2CC2)c1=O` [Example 80, 2-(3-cyanobicyclo[1.1.1]pentan-1-yl)-N-(1-cyclopropyl-2-oxo-1,2-dihydropyridin-3-yl)-7-isopropoxyimidazo[1,2-a]pyridine-6-carboxamide], the kinetic solubility at 24 h in data set [1] is 9.5 µg/mL (≈ 21.4 µM). Besides, on IRAK4, the concentration for half-maximal inhibition (IC50) stood at 0.3 nM. Also, in data set [2], the Kpuu (unbound brain-to-plasma partition coefficient) was determined as 0.9. For the same molecule, the efflux ratio at 120 min, 1 μM at MDR1 turned out to be 4.9.
